# Experiments:
# 4HPA3H = molecular target: T1, 4HPA3H (Escherichia coli, UniProt Q57160); test: Whole-cell hydroxylation, cells expressing wild-type 4HPA3H; format: cell-based, E. coli; settings: BL21(DE3) cells expressing wild-type 4HPA3H
# T1 construct: expressed in transfected cells; host or cells: E. coli BL21(DE3)
# Method: (§5) Substrates (200 μM) as shown in FIG. 1 were added to suspensions of bacterial cells expressing 4HPA3H or its single (A) and double variants (B). After incubation for 16 hours, catechols and residual substrates were extracted and analyzed by HPLC
# (§6) Suspensions of the cells were tested for hydroxylation of a panel of eight phenolic compounds (FIG. 1) which belong to different classes of natural products: we included (I) phenolic acids and ketones such as p-coumaric acid (1), ferulic acid (3), rheosmin (15) and p-hydroxybenzoic acid (9), (II) polycyclic compounds such as the hydroxycoumarin umbelliferone (13), the stilbene resveratrol (5) and the flavonoid naringenin (7). […] 4HPA3H was also tested for conversion of 4-methoxycinnamic acid and 4-aminocinnamic acid.
# wild-type 4HPA3H = molecular target: T2, wild-type 4HPA3H (Escherichia coli, UniProt Q57160); test: In vitro hydroxylation by the 4HPA3H/PrnF/FDH system, wild-type 4HPA3H; format: biochemical, E. coli; settings: substrate 1 mM, purified wild-type 4HPA3H, optimized conditions
# T2 construct: made in house; host or cells: E. coli BL21(DE3)
# Method: (§1) Purified 4HPA3H (A) or variants (B) (Y301I depicted in white and Y301F/S462A depicted in black) were used for conversion of substrates (1 mM) under optimized conditions. The numbers correspond to substrates as explained in the legend for FIG. 1 above.
# (§2) In order to develop an effective and low-cost enzyme system for in vitro hydroxylation, several parameters of the 4HPA3H reaction with respect to maximum reaction rate were optimized. By means of a spectrophotometric assay (Example 4 above), the inventors screened different buffer systems and optimized the concentration of the components p-coumaric acid (1 cf. FIG. 1), FAD, NADH and methanol, the incubation temperature and oxygen transfer (i.e. by variation of the shaking frequency) (optimum conditions are given in the Experimental Section). […] In contrast to the cofactors, the accompanying cofactor recycling redox enzymes PrnF and FDH were used in excess due to their high specific activity.
# In accordance with the whole-cell transformation experiments (FIG. 3), product yields in the conversion by the wild-type 4HPA3H (FIG. 8A) ranged from high (1, 13, 15 cf. FIG. 1) or moderate (5 cf. FIG. 1) to low (9, 11 cf. FIG. 1), whereas ferulic acid 3 was not oxidized. […] However, in contrast to the experiments with life biocatalysts […] conversion of naringenin (7 cf. FIG. 1) by the wild-type 4HPA3H (25% yield) was observed (which might be explained by increased substrate availability). The hydroxycarbazole (11) was not accepted by the double variant Y301F/S462A, probably because of the high substrate concentration which seems to reflect strong […] inhibition—an effect which has previously been observed for other 4HPA3H enzymes. Noteworthy, HPLC analysis of the reaction products confirmed product specificity.
# [1] = molecular target: T3, 4HPA3H-Y301F/S462A (SEQ ID NO:175) (Escherichia coli, UniProt Q57160, S462A/Y301F); test: Solid phase-based cascade (Talon column), hydroxylation of naringenin to eriodictyol; format: biochemical, E. coli
# T3 construct: made in house; host or cells: E. coli BL21(DE3)
# Method: Stock solutions of […] and eriodictyol (10 mM each) in methanol were produced (for the structure of the compounds, see FIG. 9). They were diluted using acetonitrile for obtaining the desired concentrations (70, 110, 140, 210 and 280 μM). 10 μl of each sample was injected in to a HPLC machine and calibration curves were produced for both substances (data not shown).
# First the catalysis was performed using 9 mU oxidase 4HPA3H in a 10 ml reaction comprising 1 ml 1M Tris/HCl, pH 7.5; 25 μl of a 10 mM NADH solution, 20 μl of a 5 mM FAD solution and 1 ml formate solution using 9 mU 4HPA3H-Y301F/S462A (SEQ ID NO:175) and 0.57 mU PrnF-reductase (SEQ ID NO:176) and 640 mU FDH (SEQ ID NO:177). Subsequently the enzymes were mixes, 100 μl 1M Tris/HCl solution, pH 7.5, was added and ddH2O (deionized, reverse osmosis) was added ad 2 ml. The enzyme solution was at least 5 times passed through a 1 ml Talon column with a flow rate of 0.1 ml/min^−1 to let the proteins bind to the column in a homogenous way. The evaluation of the complete binding of the proteins to the column material was measured via Bradford assay. Then, the column was washed once with 50 mM Tris/HCl, pH 7.5 (=basis buffer), and connected to a peristaltic pump.
# The constituents of each reaction mixture were transferred to a suitable sterile flask, which was then connected to a peristaltic pump. During reaction, the reaction mixture was slightly stirred with the help of a magnetic stirrer. Using a flow rate of 1 ml/min, the system was washed with the basis buffer for 2 min and a control sample was taken. Only then, the substrate was added, here 200 μM naringenin (from a 10 mM stock solution in methanol). The substrate was pumped over the Talon column having the enzymes bound thereto with a flow rate of 1 ml/min at maximum. During the time range from 0-1310 min, the sample extraction was performed in samples of 35 μl each. Said samples were mixed with an equal volume of acetonitrile and were immediately injected into a HPLC device (20 μl each). The evaluation was conducted with the help of a calibration curve done at the beginning of the experiment and thereby measuring and calculating the peak areas (see FIG. 10).
# The same assay was performed using 35 mU hydroxylase/1 ml column volume and the concentration of the co-enzymes for regeneration of the cofactor was increased equivalently.
# [2] = Whole-cell hydroxylation, variants compared with wild-type on well-accepted substrates; settings: whole cells
# Method: as §5, §6
# [3] = In vitro assay (4HPA3H/PrnF/FDH), conversion of ferulic acid; format: biochemical; settings: purified enzyme, PrnF and FDH
# Method: (§3) For assaying 4HPA3H in microplate scale, 4HPA3H was incubated with PrnF, the substrate p-coumaric acid (1 cf. FIG. 1) and the formate dehydrogenase (FDH) from Candida boidinii. Similar as reported in our previous publication, this enzyme was introduced for regeneration of the costly cofactor NADH: NAD^+ formed during the reaction is recycled with sodium formate, yielding a sequential three-enzyme cascade for hydride transfer (FIG. 2). The conversion of p-coumaric acid (1 cf. FIG. 1) was measured spectrophotometrically by a previously established catechol complexation method (M. Dippe, B. Weigel, R. Heinke, T. Vogt, L. A. Wessjohann, 2014), which could be applied for quantitative determination of the product caffeic acid (see FIG. 6). […] However, similar to the data obtained from whole-cell biotransformations (see Example 2), these variants were beneficial in the conversion of ferulic acid (3 cf. FIG. 1), which is also reflected by comparably high conversion rates (4HPA3H-Y301F/S462A: 1.06±0.31 nmol min^−1 mg^−1, 4HPA3H-Y301I: 4.49±0.20 nmol min^−1 mg^−1).
# (§4) In order to develop an effective and low-cost enzyme system for in vitro hydroxylation, several parameters of the 4HPA3H reaction with respect to maximum reaction rate were optimized. […]
# [4] = In vitro hydroxylation, mutant enzymes on challenging substrates 3 and 7; format: biochemical; settings: substrate 1 mM, purified enzymes
# Method: as §1, §2
# In accordance with the whole-cell transformation experiments (FIG. 3), product yields in the conversion by the wild-type 4HPA3H (FIG. 8A) ranged from high (1, 13, 15 cf. FIG. 1) or moderate (5 cf. FIG. 1) to low (9, 11 cf. FIG. 1), whereas ferulic acid 3 was not oxidized. […]
# [5] = In vitro catechol complex formation assay (4HPA3H/PrnF/FDH), p-coumaric acid; format: biochemical; settings: purified enzyme, optimized conditions, PrnF and FDH
# Method: (A) Standard curve for the determination of caffeic acid (2 cf. FIG. 1). Mixtures of caffeic acid and p-coumaric acid (1) were incubated with FeCl3 and analyzed at 595 nm as described in the Experimental Section. (B) Time course of the oxidation of p-coumaric acid (1 cf. FIG. 1) by wild-type 4HPA3H. The enzymatic reaction was performed under optimized conditions, and produced caffeic acid (2 cf. FIG. 1) was detected as Fe^3+ complex. Data are the means±standard deviations obtained from three measurements.
# as §3, §4
Molecule,acceptance as substrate (4HPA3H),product yield (wild-type 4HPA3H),other results
Nc1ccc(C=CC(=O)O)cc1 [4-aminocinnamic acid],no substrates,,
COc1ccc(C=CC(=O)O)cc1 [4-methoxycinnamic acid],no substrates,,
"O=C(O)/C=C/c1ccc(O)cc1 [Compound 1, p-coumaric acid]",high efficiency,high,
"COc1cc(/C=C/C(=O)O)ccc1O [Compound 3, ferulic acid]",not accepted,not oxidized,
"Oc1ccc(C=Cc2cc(O)cc(O)c2)cc1 [Compound 5, resveratrol]",,moderate,
"O=C1C[C@@H](c2ccc(O)c(O)c2)Oc2cc(O)cc(O)c21 [Compound 8, eriodictyol]",,,"biocatalytic formation of eriodictyol ([1]; 9 mU enzyme/1 ml column, 200 μM naringenin, after 1290 min): 42.4 µM; eriodictyol yielded ([1]; 35 mU hydroxylase/1 ml column volume, after 240 min): 67.7 µM"
"O=C(O)c1ccc(O)cc1 [Compound 9, p-hydroxybenzoic acid]",,low,
"O=c1ccc2ccc(O)cc2o1 [Compound 13, umbelliferone]",,high,
"CC(=O)CCc1ccc(O)cc1 [Compound 15, rheosmin]",,high,"conversion / yield of catechol product (4HPA3H; substrate 200 μM, 16 hours, HPLC): 100%"
"S462A: 4HPA3H single variant S462A (protein, listed as Escherichia coli, 4HPA3H HpaB S462A) MKPEDFRASTQRPFTGEEYLKSLQDGREIYIYGERVKDVTTHPAFRNAAASVAQLYDALHKPEMQDSLCWNTDTGSGGYTHKFFRVAKSADDLRQQRDAIAEWSRLSYGWMGRTPDYKAAFGCALGANPGFYGQFEQNARNWYTRIQETGLYFNHAIVNPPIDRHLPTDKVKDVYIKLEKETDAGIIVSGAKVVATNSALTHYNMIGFGSAQVMGENPDFALMFVAPMDADGVKLISRASYEMVAGATGSPYDYPLSSRFDENDAILVMDNVLIPWENVLIYRDFDRCRRWTMEGGFARMYPLQACVRLAVKLDFITALLKKSLECTGTLEFRGVQADLGEVVAWRNTFWALSDSMCSEATPWVNGAYLPDHAALQTYRVLAPMAYAKIKNIIERNVTSGLIYLPSSARDLNNPQIDQYLAKYVRGSNGMDHVQRIKILKLMWDAIGSEFGGRHELYEINYAGSQDEIRLQCLRQAQNSGNMDKMMAMVDRCLSEYDQDGWTVPHLHNNDDINMLDKLLK",,,"activity towards substrates 1, 13, 15 compared with wild-type enzyme [2]: comparably active"
"4HPA3H-Y301F/S462A: 4HPA3H double variant, SEQ ID NO:175 (protein, listed as Escherichia coli, 4HPA3H HpaB Y301F/S462A) MKPEDFRASTQRPFTGEEYLKSLQDGREIYIYGERVKDVTTHPAFRNAAASVAQLYDALHKPEMQDSLCWNTDTGSGGYTHKFFRVAKSADDLRQQRDAIAEWSRLSYGWMGRTPDYKAAFGCALGANPGFYGQFEQNARNWYTRIQETGLYFNHAIVNPPIDRHLPTDKVKDVYIKLEKETDAGIIVSGAKVVATNSALTHYNMIGFGSAQVMGENPDFALMFVAPMDADGVKLISRASYEMVAGATGSPYDYPLSSRFDENDAILVMDNVLIPWENVLIYRDFDRCRRWTMEGGFARMFPLQACVRLAVKLDFITALLKKSLECTGTLEFRGVQADLGEVVAWRNTFWALSDSMCSEATPWVNGAYLPDHAALQTYRVLAPMAYAKIKNIIERNVTSGLIYLPSSARDLNNPQIDQYLAKYVRGSNGMDHVQRIKILKLMWDAIGSEFGGRHELYEINYAGSQDEIRLQCLRQAQNSGNMDKMMAMVDRCLSEYDQDGWTVPHLHNNDDINMLDKLLK",,,conversion rate of ferulic acid (3) [3]: 1.06 ± 0.31 nmol/min/mg; transformation of the challenging substrates 3 and 7 [4]: optimal; specific activity towards p-coumaric acid (1) [5]: 1.6 ± 0.3 nmol/min/mg
"M293P: 4HPA3H single variant M293P (protein, listed as Escherichia coli, 4HPA3H HpaB M293P) MKPEDFRASTQRPFTGEEYLKSLQDGREIYIYGERVKDVTTHPAFRNAAASVAQLYDALHKPEMQDSLCWNTDTGSGGYTHKFFRVAKSADDLRQQRDAIAEWSRLSYGWMGRTPDYKAAFGCALGANPGFYGQFEQNARNWYTRIQETGLYFNHAIVNPPIDRHLPTDKVKDVYIKLEKETDAGIIVSGAKVVATNSALTHYNMIGFGSAQVMGENPDFALMFVAPMDADGVKLISRASYEMVAGATGSPYDYPLSSRFDENDAILVMDNVLIPWENVLIYRDFDRCRRWTPEGGFARMYPLQACVRLAVKLDFITALLKKSLECTGTLEFRGVQADLGEVVAWRNTFWALSDSMCSEATPWVNGAYLPDHAALQTYRVLAPMAYAKIKNIIERNVTSGLIYLPSSARDLNNPQIDQYLAKYVRGSNGMDHVQRIKILKLMWDAIGSEFGGRHELYEINYSGSQDEIRLQCLRQAQNSGNMDKMMAMVDRCLSEYDQDGWTVPHLHNNDDINMLDKLLK",,,"activity towards substrates 1, 13, 15 compared with wild-type enzyme [2]: reduced activity"
"4HPA3H: wild-type 4-hydroxyphenylacetate 3-hydroxylase from E. coli, SEQ ID NO:98 (protein, listed as Escherichia coli, 4HPA3H HpaB wt) MKPEDFRASTQRPFTGEEYLKSLQDGREIYIYGERVKDVTTHPAFRNAAASVAQLYDALHKPEMQDSLCWNTDTGSGGYTHKFFRVAKSADDLRQQRDAIAEWSRLSYGWMGRTPDYKAAFGCALGANPGFYGQFEQNARNWYTRIQETGLYFNHAIVNPPIDRHLPTDKVKDVYIKLEKETDAGIIVSGAKVVATNSALTHYNMIGFGSAQVMGENPDFALMFVAPMDADGVKLISRASYEMVAGATGSPYDYPLSSRFDENDAILVMDNVLIPWENVLIYRDFDRCRRWTMEGGFARMYPLQACVRLAVKLDFITALLKKSLECTGTLEFRGVQADLGEVVAWRNTFWALSDSMCSEATPWVNGAYLPDHAALQTYRVLAPMAYAKIKNIIERNVTSGLIYLPSSARDLNNPQIDQYLAKYVRGSNGMDHVQRIKILKLMWDAIGSEFGGRHELYEINYSGSQDEIRLQCLRQAQNSGNMDKMMAMVDRCLSEYDQDGWTVPHLHNNDDINMLDKLLK",,,specific activity towards p-coumaric acid (1) [5]: 6.2 ± 0.5 nmol/min/mg
